Holding throughout (design): purchased Milipore (Millipore)
Assay [1] has as its target T1, Human adrenergic α2B receptor (Homo sapiens, UniProt P18089).
T1 sequence (P18089 1-450): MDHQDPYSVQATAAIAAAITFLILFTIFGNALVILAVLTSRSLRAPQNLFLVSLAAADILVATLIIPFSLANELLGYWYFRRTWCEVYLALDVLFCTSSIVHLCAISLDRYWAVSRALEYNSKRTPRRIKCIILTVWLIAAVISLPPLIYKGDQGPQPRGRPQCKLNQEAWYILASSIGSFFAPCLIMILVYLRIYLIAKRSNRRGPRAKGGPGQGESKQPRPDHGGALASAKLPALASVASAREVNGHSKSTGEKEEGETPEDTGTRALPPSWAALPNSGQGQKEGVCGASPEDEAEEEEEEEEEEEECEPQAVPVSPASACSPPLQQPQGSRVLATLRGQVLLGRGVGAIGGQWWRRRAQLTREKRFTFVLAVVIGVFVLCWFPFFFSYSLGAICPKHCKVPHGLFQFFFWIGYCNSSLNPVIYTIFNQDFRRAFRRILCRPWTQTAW
Description: Radioligand binding, adrenergic α2B (Protocol Group B). The following applies: Protocol Group B; for inhibition at 0.01 µM / Percentage inhibition of ligand binding, Adrenergic α2B (10 nM): 10 nM compound; for inhibition at 0.01 µM: read-out: Percentage inhibition of ligand binding, Adrenergic α2B (10 nM); for inhibition at 0.03 µM / Percentage inhibition of ligand binding, Adrenergic α2B (30 nM): 30 nM compound; for inhibition at 0.03 µM: read-out: Percentage inhibition of ligand binding, Adrenergic α2B (30 nM); for Ki: estimated Ki, read-out: Ki α2B; for Percentage inhibition of ligand binding, Adrenergic α2B (10 nM): 0.01 µM; for Percentage inhibition of ligand binding, Adrenergic α2B (30 nM): 0.03 µM. In outline:
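Recombinant human α2B receptor membranes incubated with compounds in 50 mM Tris-HCl pH 7.4, 5 mM MgCl2, 1 mM CaCl2, 0.2% BSA, 1% DMSO vehicle. Non-specific binding defined with 10 μM rauwolscine. Values are percent inhibition of specific binding or estimated Ki.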

The target in assay [2] is T2, Human adrenergic α2A receptor (Homo sapiens, UniProt P08913).
T2 sequence (P08913 1-465): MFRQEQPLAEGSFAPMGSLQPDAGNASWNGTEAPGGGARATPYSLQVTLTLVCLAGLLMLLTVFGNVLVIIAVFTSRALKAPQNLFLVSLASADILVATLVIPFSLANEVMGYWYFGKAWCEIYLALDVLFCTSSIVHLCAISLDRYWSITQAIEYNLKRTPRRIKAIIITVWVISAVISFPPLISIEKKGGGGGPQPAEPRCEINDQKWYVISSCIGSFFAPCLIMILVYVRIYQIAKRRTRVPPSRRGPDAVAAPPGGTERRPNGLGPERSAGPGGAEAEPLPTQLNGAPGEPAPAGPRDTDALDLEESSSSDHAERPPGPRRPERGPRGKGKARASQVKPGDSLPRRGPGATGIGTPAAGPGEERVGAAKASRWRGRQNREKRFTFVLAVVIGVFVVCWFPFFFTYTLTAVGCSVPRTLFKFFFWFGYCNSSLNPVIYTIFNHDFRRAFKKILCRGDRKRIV
Description: Radioligand binding, adrenergic α2A (Protocol Group B). The note with it: Protocol Group B; for inhibition at 0.1 µM / Percentage inhibition of ligand binding, Adrenergic α2A (0.1 μM): 0.1 μM compound; for inhibition at 0.1 µM: read-out: Percentage inhibition of ligand binding, Adrenergic α2A (0.1 μM); for inhibition at 0.3 µM / Percentage inhibition of ligand binding, Adrenergic α2A (0.3 μM): 0.3 μM compound; for inhibition at 0.3 µM: read-out: Percentage inhibition of ligand binding, Adrenergic α2A (0.3 μM); for Ki: estimated Ki. The method in brief:
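Membranes from recombinant cells expressing the receptor, in 50 mM Tris-HCl pH 7.4 with 5 mM MgCl2, 1 mM CaCl2, 0.2% BSA; compounds incubated with 2 nM [^3H]MK-912 for 60 min at 25° C. Nonspecific binding defined by 10 μM rauwolscine; filtration, counting; percent inhibition of specific binding, or estimated Ki.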

Assay [3] addresses T3, Human adrenergic α1B receptor (Homo sapiens, UniProt P35368).
T3 sequence (P35368 1-520): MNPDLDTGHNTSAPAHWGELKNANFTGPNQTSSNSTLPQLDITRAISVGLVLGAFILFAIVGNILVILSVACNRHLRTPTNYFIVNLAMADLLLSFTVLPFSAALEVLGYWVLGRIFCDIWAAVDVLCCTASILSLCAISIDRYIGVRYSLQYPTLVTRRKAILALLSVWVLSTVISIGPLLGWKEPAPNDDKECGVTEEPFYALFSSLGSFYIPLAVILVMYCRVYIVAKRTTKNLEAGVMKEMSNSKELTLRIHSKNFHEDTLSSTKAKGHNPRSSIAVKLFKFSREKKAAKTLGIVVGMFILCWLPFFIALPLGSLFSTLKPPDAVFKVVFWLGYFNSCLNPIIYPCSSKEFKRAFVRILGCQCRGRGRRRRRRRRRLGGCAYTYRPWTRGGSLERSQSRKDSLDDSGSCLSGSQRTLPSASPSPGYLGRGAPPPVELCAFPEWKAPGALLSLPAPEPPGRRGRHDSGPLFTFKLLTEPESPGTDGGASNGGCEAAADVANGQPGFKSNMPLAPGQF
The experiment in a line: Radioligand binding, adrenergic α1B (Protocol Group B). The following applies: Protocol Group B; for Percentage inhibition of ligand binding, Adrenergic α1B (0.1 μM) / inhibition at 0.1 µM: 0.1 μM compound; for inhibition at 0.3 µM / Percentage inhibition of ligand binding, Adrenergic α1B (0.3 μM): 0.3 μM compound; for inhibition at 0.3 µM: read-out: Percentage inhibition of ligand binding, Adrenergic α1B (0.3 μM); for Ki: estimated Ki; for inhibition at 0.1 µM: read-out: Percentage inhibition of ligand binding, Adrenergic α1B (0.1 μM). In outline: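 Recombinant human α1B membranes incubated with test compound and 0.3 nM [3H]prazosin, 60 min at 25 °C, in 50 mM Tris-HCl pH 7.4, 10 mM MgCl2, 1 mM EDTA; nonspecific binding with 10 μM prazosin. Filter-bound radioactivity counted; values are % inhibition of specific binding or estimated Ki.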

The source of these data is patent US20150315188A1, “COMPOUNDS AND METHODS FOR TREATMENT OF HYPERTENSION” (MEDIVATION TECHNOLOGIES, INC., priority 2012, published 2015).

Consider `Cc1cc(F)c2c(c1)c1c(n2CC(C)(O)c2ccncc2)CCN2CCCC12` (single isomer, unassigned) [81a], for which, in assay [1], the inhibition at 0.01 µM is 96%, the inhibition at 0.03 µM turned out to be 99% and the Ki is 0.91 nM. Also, the inhibition at 0.1 µM in assay [1] (0.1 μM compound, read-out: Percentage inhibition of ligand binding, Adrenergic α2B (0.1 μM)) came out at 99%. Moreover, in assay [2], the inhibition at 0.1 µM came to 71%, the inhibition at 0.3 µM turned out to be 90% and the inhibition constant (Ki) is 19.6 nM. Besides, in assay [3], the “Percentage inhibition of ligand binding, Adrenergic α1B (0.1 μM)” value is 72%; the inhibition at 0.3 µM worked out at 89%; the Ki was 14.6 nM.
As for `Cc1cc(Cl)c2c(c1)c1c(n2CC(C)(O)c2ccncc2)CCN2CCCC12` (single isomer, unassigned) [91a], in assay [1], the inhibition at 0.01 µM amounted to 93%, the inhibition at 0.03 µM turned out to be 95% and the inhibition constant Ki was 0.7 nM. For the same compound, in assay [2], the inhibition at 0.1 µM was determined as 81%, the inhibition at 0.3 µM amounted to 91% and the Ki is 8.8 nM. In assay [3], the inhibition at 0.1 µM worked out at 59%, the inhibition at 0.3 µM worked out at 81% and the inhibition constant (Ki) is 20.9 nM.
In the case of `Cc1cc(Cl)c2c(c1)c1c(n2CC(C)(O)c2ccncc2)CCN2CCCC12` (single isomer, unassigned) [91b], in assay [1], the “Percentage inhibition of ligand binding, Adrenergic α2B (10 nM)” value (from here on “Percentage inhibition … (10 nM)”) came out at 95%; the “Percentage inhibition of ligand binding, Adrenergic α2B (30 nM)” value (from here on “Percentage inhibition … (30 nM)”) worked out at 97%; the Ki is 0.93 nM. Moreover, in assay [2], the “Percentage inhibition of ligand binding, Adrenergic α2A (0.1 μM)” value is recorded as 67%; the “Percentage inhibition of ligand binding, Adrenergic α2A (0.3 μM)” value was 86%; the Ki was 28.4 nM. In addition, in assay [3], the “Percentage inhibition of ligand binding, Adrenergic α1B (0.1 μM)” value was 43%; the “Percentage inhibition of ligand binding, Adrenergic α1B (0.3 μM)” value was 68%; the inhibitory constant (Ki) is 38.2 nM.
Take `OC(Cn1c2c(c3cc(Cl)cc(F)c31)C1CCCN1CC2)c1ccncc1` (single isomer, unassigned) [135a]: in assay [1], the inhibition at 0.01 µM was found to be 79%, the inhibition at 0.03 µM was 93% and the inhibition constant (Ki) was 2.95 nM. In addition, in assay [2], the “Percentage inhibition of ligand binding, Adrenergic α2A (0.1 μM)” value turned out to be 57%; the inhibition at 0.3 µM turned out to be 77%; the Ki is 66.1 nM. Further, in assay [3], the inhibition at 0.1 µM was 71%, the inhibition at 0.3 µM came to 92% and the Ki is 23 nM.
Consider `OC(Cn1c2c(c3cc(Cl)cc(F)c31)C1CCCN1CC2)c1ccncc1` (single isomer, unassigned) [135b], for which, in assay [1], the “Percentage inhibition … (10 nM)” value turned out to be 84%; the “Percentage inhibition … (30 nM)” value is recorded as 83%; the Ki is 0.69 nM. Also, in assay [2], the “Percentage inhibition of ligand binding, Adrenergic α2A (0.1 μM)” value came to 79%; the “Percentage inhibition of ligand binding, Adrenergic α2A (0.3 μM)” value was 84%; the Ki is 3.1 nM. In assay [3], the “Percentage inhibition of ligand binding, Adrenergic α1B (0.1 μM)” value is recorded as 64% and the “Percentage inhibition of ligand binding, Adrenergic α1B (0.3 μM)” value is recorded as 81%.
As for `Cc1cc(F)cc2c3c(n(CC(O)c4ccncc4)c12)CCN1CCCC31` (single isomer, unassigned) [136a], in assay [1], the inhibition at 0.01 µM was 91%, the inhibition at 0.03 µM turned out to be 95% and the inhibition constant Ki was 1.5 nM. Moreover, in assay [2], the “Percentage inhibition of ligand binding, Adrenergic α2A (0.1 μM)” value was determined as 69%; the inhibition at 0.3 µM was 87%; the Ki is 14.4 nM. In addition, in assay [3], the inhibition at 0.1 µM stood at 31%, the inhibition at 0.3 µM turned out to be 70% and the inhibition constant (Ki) is 14.7 nM.
Regarding `Cc1cc(F)c2c(c1)c1c(n2CC(O)c2ccncc2)CCN2CCCC12` (single isomer, unassigned) [137a], in assay [1], the “Percentage inhibition … (10 nM)” value amounted to 83%; the inhibition at 0.03 µM was 96%; the Ki was 1.5 nM. Besides, in assay [2], the “Percentage inhibition of ligand binding, Adrenergic α2A (0.1 μM)” value was determined as 56%; the “Percentage inhibition of ligand binding, Adrenergic α2A (0.3 μM)” value amounted to 79%; the Ki was 43.6 nM. In assay [3], the inhibition at 0.1 µM amounted to 58%, the inhibition at 0.3 µM stood at 85% and the Ki is 15 nM.
`Cc1cc(F)c2c(c1)c1c(n2CC(O)c2ccncc2)CCN2CCCC12` (single isomer, unassigned) [137b]: in assay [1], the “Percentage inhibition … (10 nM)” value was 106%; the “Percentage inhibition … (30 nM)” value worked out at 107%; the inhibition constant (Ki) is 0.79 nM. Also, in assay [2], the “Percentage inhibition of ligand binding, Adrenergic α2A (0.1 μM)” value was 94%; the “Percentage inhibition of ligand binding, Adrenergic α2A (0.3 μM)” value worked out at 102%; the Ki is 2.4 nM. Moreover, in assay [3], the “Percentage inhibition of ligand binding, Adrenergic α1B (0.1 μM)” value is listed as 74%; the “Percentage inhibition of ligand binding, Adrenergic α1B (0.3 μM)” value was found to be 94%; the Ki is 7.3 nM.
Consider `Cc1ccc2c(c1)c1c(n2CC(OCC2CCC2)c2ccncc2)CCN2CCCC12` (single isomer, unassigned) [138a], for which, in assay [1], the inhibition at 0.01 µM is 91%, the inhibition at 0.03 µM turned out to be 90% and the inhibitory constant (Ki) is 0.95 nM. In addition, in assay [2], the inhibition at 0.1 µM was found to be 91%, the inhibition at 0.3 µM came out at 88% and the Ki was 2.2 nM. Besides, in assay [3], the “Percentage inhibition of ligand binding, Adrenergic α1B (0.1 μM)” value amounted to 84%; the inhibition at 0.3 µM is 88%; the Ki is 2.4 nM.
Consider `Cc1ccc2c(c1)c1c(n2CC(OCC2CCC2)c2ccncc2)CCN2CCCC12` (single isomer, unassigned) [138b], for which, in assay [1], the “Percentage inhibition … (10 nM)” value is given as 82%; the “Percentage inhibition … (30 nM)” value was 81%; the Ki is 1.45 nM. Besides, in assay [2], the “Percentage inhibition of ligand binding, Adrenergic α2A (0.1 μM)” value stood at 82%; the “Percentage inhibition of ligand binding, Adrenergic α2A (0.3 μM)” value was 84%; the inhibitory constant (Ki) is 9.9 nM. Moreover, in assay [3], the “Percentage inhibition of ligand binding, Adrenergic α1B (0.1 μM)” value was 57%; the “Percentage inhibition of ligand binding, Adrenergic α1B (0.3 μM)” value worked out at 80%; the Ki is 14 nM.
Take `Cc1ccc2c(c1)c1c(n2CC(O)c2ccncc2)CCN2CCCC12` (single isomer, unassigned) [Compound No. 178d]: in assay [1], the “Percentage inhibition … (30 nM)” value turned out to be 104% and the inhibition at 0.03 µM worked out at 97%. In assay [2], the “Percentage inhibition of ligand binding, Adrenergic α2A (0.1 μM)” value was determined as 96% and the inhibition at 0.1 µM was found to be 90%. In assay [3], the “Percentage inhibition of ligand binding, Adrenergic α1B (0.1 μM)” value turned out to be 99% and the inhibition at 0.1 µM is 94%.

Usually inhibition stands for the drop in the measured response relative to a control, in per cent. As a reminder, the Ki is the dissociation constant of the complex between target and ligand, obtained from inhibition or displacement.
